Measured values published in patent publication US7928225B2, “Oxabispidine compounds for the treatment of cardiac arrhythmias” (AstraZeneca AB, priority 2005, dated 2011).

Key:
[1] = system: anaesthetised guinea pigs; assay: Test A: Primary electrophysiological effects in anaesthetised guinea pigs (MAP duration); format: in vivo, guinea pig; conditions: infusion into jugular vein, MAP duration at 75 percent repolarization during pacing, from mean dose-response curve
Description: Primary Electrophysiological Effects in Anaesthetised Guinea Pigs
Guinea pigs weighing between 500 and 1000 g were used. The animals were housed for at least one week before the experiment and had free access to food and tap water during that period.
Anaesthesia was induced by an intraperitoneal injection of pentobarbital (50 to 60 mg/kg) and catheters were introduced into one carotid artery (for blood pressure recording and blood sampling) and into one jugular vein (for drug infusions). Needle electrodes were placed on the limbs for recording of ECGs (lead II). […]
The left ventricular epicardium was exposed by a left-sided thoracotomy, and a custom-designed suction electrode for recording of the monophasic action potential (MAP) was applied to the left ventricular free wall. The electrode was kept in position as long as an acceptable signal could be recorded, otherwise it was moved to a new position. […]
Of the numerous variables measured in this analysis, three were selected as the most important for comparison and selection of active compounds. […] Systolic and diastolic blood pressure were measured in order to judge the haemodynamic status of the anaesthetised animal. […]
The mean of the two control recordings was set to zero and the effects recorded after consecutive doses of test substance were expressed as percentage changes from this value. […]

HERG channel = target: T1, HERG channel (Homo sapiens, UniProt Q12809); assay: Test B: Rb+-efflux assay for detection of HERG channel blockers; format: cell-based; conditions: depolarisation-induced Rb+-efflux from Chinese hamster ovary cells stably expressing the HERG-channel
T1 construct: expressed in transfected cells
Description: Rb^+-Efflux Assay for Detection of HERG Channel Blockers
The human ether-a-go-go related gene (HERG) encodes the voltage-gated K^+ channel underlying the cardiac rapid delayed rectifier current IKr. The IC50 value for HERG channel blockade was determined using a high throughput functional assay based on depolarisation-induced Rb^+-efflux from Chinese hamster ovary cells stably expressing the HERG-channel.
Cells were grown in Ham F12 (Life Technologies 31765-027) supplemented with 10% FBS and 0.6 mg/mL hygromycin B and were routinely passaged twice-weekly. For experimental studies, cells were plated at a density of 15,000 cells/well in Falcon, 384-well tissue culture-treated black-walled clear-bottomed plates and were thereafter incubated overnight at 37° C. in a cell culture incubator.
Following incubating overnight, cell plates were washed and a Rb^+-Load buffer (a physiological buffer containing Rb^+) was added. Cell plates were then incubated for 3 hours and were thereafter washed. Following this wash, the test compounds were added. The cell plates were then incubated for another 10 minutes and, following this incubation period, external K^+ concentration was increased in order to depolarize the cells and activate HERG channels. […]
Compound activity was expressed as: […]

T1 sequence (Q12809 whole entry): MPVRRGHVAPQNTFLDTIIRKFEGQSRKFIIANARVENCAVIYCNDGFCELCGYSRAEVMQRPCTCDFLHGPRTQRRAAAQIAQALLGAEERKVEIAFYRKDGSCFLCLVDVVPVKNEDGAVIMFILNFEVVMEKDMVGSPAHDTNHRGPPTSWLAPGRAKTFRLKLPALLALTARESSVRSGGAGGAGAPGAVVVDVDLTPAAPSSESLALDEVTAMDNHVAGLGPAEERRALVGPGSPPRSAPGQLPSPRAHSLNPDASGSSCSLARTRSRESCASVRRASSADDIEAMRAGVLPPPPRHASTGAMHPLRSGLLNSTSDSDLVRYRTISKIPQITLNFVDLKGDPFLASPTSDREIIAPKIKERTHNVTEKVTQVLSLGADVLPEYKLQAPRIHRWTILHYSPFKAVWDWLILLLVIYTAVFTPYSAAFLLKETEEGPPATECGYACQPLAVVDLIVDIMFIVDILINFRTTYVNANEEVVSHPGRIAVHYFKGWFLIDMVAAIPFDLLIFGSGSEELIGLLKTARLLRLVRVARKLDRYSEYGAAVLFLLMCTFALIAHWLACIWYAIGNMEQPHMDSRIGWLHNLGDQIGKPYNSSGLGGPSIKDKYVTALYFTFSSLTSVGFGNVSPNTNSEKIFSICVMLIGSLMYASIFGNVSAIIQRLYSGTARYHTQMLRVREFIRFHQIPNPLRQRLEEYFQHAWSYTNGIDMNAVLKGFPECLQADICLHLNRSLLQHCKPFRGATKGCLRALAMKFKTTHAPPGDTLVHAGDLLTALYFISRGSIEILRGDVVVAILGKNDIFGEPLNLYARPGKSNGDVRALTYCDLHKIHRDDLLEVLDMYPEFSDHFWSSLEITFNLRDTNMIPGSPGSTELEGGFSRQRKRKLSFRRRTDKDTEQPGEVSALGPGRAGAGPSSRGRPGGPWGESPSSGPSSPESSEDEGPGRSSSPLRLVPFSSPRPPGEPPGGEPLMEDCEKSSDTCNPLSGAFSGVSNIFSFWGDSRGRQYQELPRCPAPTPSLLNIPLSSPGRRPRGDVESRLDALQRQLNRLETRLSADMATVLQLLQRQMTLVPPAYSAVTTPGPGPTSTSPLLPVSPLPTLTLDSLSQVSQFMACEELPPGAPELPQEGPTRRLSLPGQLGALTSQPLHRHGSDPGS

SMILES | D10 (cumulative dose prolonging the MAP duration by 10% from the baseline; index of class III electrophysiological potency) [1] | pIC50 for HERG channel blockade (HERG channel)
CC(C)(C)OC(=O)NCCN1CC2CN(CCOc3ccc(C#N)cc3F)CC(C1)O2 [Example 2, tert-Butyl (2-{7-[2-(4-cyano-2-fluorophenoxy)ethyl]-9-oxa-3,7-diazabicyclo-[3.3.1]non-3-yl}ethyl)carbaamate] | 6.3 | 5.0
CC(C)(C)OC(=O)NCCCN1CC2CN(CCCOc3ccc(C#N)cc3)CC(C1)O2 [Example 5] | 6.8 | 6.19
